Results reported in patent publication US10105362B2, “Anti-tumor use of anagrelide and derivatives thereof” (SHANGHAI INSTITUTE OF MATERIA MEDICA, CHINESE ACADEMY OF …, priority 2013, dated 2018).
“Also recorded” adds a separate entry of the source.

Assays:
[1] = Body weight of tumor-bearing nude mice; type: in vivo, BALB/c naked mouse; settings: 21 days
Procedure: Under aseptic conditions, tumor cells in the proliferation stage were taken. The cell concentration was adjusted after digestion, seeded at right armpit of nude mice, and the inoculated volume was 0.1 mL. Tumor diameter was measured with vernier caliper, after the tumor was grown to 200-300 mm^3, the tumor-bearing mice were selected, and randomly divided into 3 groups (n=4) according to the size of the tumors: negative control group, Anagrelide I (10 mg/kg), Anagrelide II (30 mg/kg). Each group was intragastric administrated, the day of administration was recorded as d1, the negative control group was given same amount of vehicle, and then the long and short diameters of tumor were measured twice a week, while the body weights of mice were weighed. At the 21th day of the administration, the animals were sacrificed and the tumor was dissected and weighed. Before the animals were sacrificed, eyeball was taken for blood sample, the number of white blood cell (WBC), red blood cell (RBC), concentration of hemoglobin (Hb) and number of platelet (PLT) were measured.

phosphodiesterase (PDE) = settings: subsequent studies; cited from earlier work
SMMC7721 cells = test: Cell cycle distribution by PI staining and flow cytometry; type: cell-based, human; settings: 100 nM, 24 hours
Procedure: (§1) Logarithmic growth phase cells were seeded in 6-well culture plate in 5×10^5/mL concentration, 1.5 mL of culture medium in each well, and cultured overnight. Different concentrations of drugs were added to stimulate for a certain time, and then the cells were collected into 1.5 mL EP tube. The cells were washed with cold PBS for 1-2 times, little PBS (about 200 ul) was added and blown to uniform. 1 mL 75% ethanol was pre-cooled (prepared with PBS), and cells was added dropwise into alcohol solution which was oscillated on shaker, fixed under 4° C. overnight. After 1000rpm centrifuged for 5 min, the supernatant was discarded and 1-2 mL PBS was added to wash twice. The cells were suspended with 0.5 mL RnaseA (1.0 mg/ml), and digested under 37° C. for 1 h. The cells were resuspended with 0.5 mL 25 ug/mL PI dye liquor, and were kept in dark place under 4° C. for 30 min. The cells were filtered with 300 mesh sieve, and the cell cycle distribution was analyzed with flow cytometry.
(§2) In order to determine whether Anagrelide had affected the cell cycle of tumor cells, SMMC7721, HeLa, SW1116 were taken as example to represent sensitive cells and relatively sensitive cells to detect the effect on cell cycle of Anagrelide by PI staining and flow cytometry (FIG. 4 and FIG. 5).

SW1116 cells = test: as above; type: cell-based, human; settings: 100 nM, 24 hours
Procedure: as §1, §2

HeLa cells = test: as above; type: cell-based, human; settings: 100 nM, 24 hours
Procedure: as §1, §2

Bel7404 cells [2] = test: MTT colorimetry, tumor cell growth/viability; type: cell-based, human; settings: 1 μM, 72 hours
Procedure: (§3) Logarithmic growth phase cells were seeded in 96-well culture plate in appropriate density (100 μl in each well). After overnight cultivation, different concentrations of drugs were added and treated for 72 h, while three wells were set for each concentration. After treatment was completed, 20 μl/well of MTT (5 mg/ml in PBS) was added to each well and affected for 3-5 hours, the medium was suctioned out completely and 100 ul/well of DMSO was added, oscillated on decolorization shaker in dark place for 10 minutes until the Blue purple crystals formazan (formazan) was completely dissolved, the OD (Optical Density) value was detected with a microplate reader (detection wavelength: […]; reference wavelength: 650 nM). In blank group, culture medium only added without cells, and in control group, DMSO in the same volume as that for drug was added. Cell viability was calculated=(OD value of experimental group−OD value of control group)/(OD value of control group−OD value of blank group). Tumor cells from different tissue source were selected, and the concentration of Anagrelide was 1 μM and 50 μM, OD value was MTT detected after administrated for 72 hours, and the cell viability was calculated using cell viability=(administered group OD-blank group OD)/(control group OD-blank group OD)*100%, and was mapped by using GraphPadPrism 4 software. IC50 values on this seven cell lines of Anagrelide were detect by MTT method, and all of them are less than 100 nM (Table 2).

A498 cells [3] = test: MTT colorimetry, tumor cell growth/viability; type: cell-based, human; settings: for IC50: A498, MTT, 72 h
Procedure: as §3

tumor cells = test: Growth inhibition of tumor cells (summary statement); type: cell-based; settings: 10 nM/L
MDA-MB-231 cells = test: MTT colorimetry, tumor cell growth/viability; type: cell-based, human; settings: 50 μM, 72 hours
Procedure: as §3, with “software.” for “software. IC50 values on this seven cell lines of Anagrelide were detect by MTT method, and all of them are less than 100 nM (Table 2).”

MDA-MB-468 cells = test: MTT colorimetry, tumor cell growth/viability; type: cell-based, human; settings: 50 μM, 72 hours
Procedure: as §3, with “software.” for “software. IC50 values on this seven cell lines of Anagrelide were detect by MTT method, and all of them are less than 100 nM (Table 2).”

U87-MG cells = test: MTT colorimetry, tumor cell growth/viability; type: cell-based, human; settings: 50 μM, 72 hours
Procedure: as §3, with “software.” for “software. IC50 values on this seven cell lines of Anagrelide were detect by MTT method, and all of them are less than 100 nM (Table 2).”

Wi38 cells = test: MTT colorimetry, tumor cell growth/viability; type: cell-based, human; settings: 50 μM, 72 hours
Procedure: as §3, with “software.” for “software. IC50 values on this seven cell lines of Anagrelide were detect by MTT method, and all of them are less than 100 nM (Table 2).”

H1299 cells = test: MTT colorimetry, tumor cell growth/viability; type: cell-based, human; settings: 50 μM, 72 hours
Procedure: as §3, with “software.” for “software. IC50 values on this seven cell lines of Anagrelide were detect by MTT method, and all of them are less than 100 nM (Table 2).”

DU145 cells = test: MTT colorimetry, tumor cell growth/viability; type: cell-based, human; settings: 50 μM, 72 hours
Procedure: as §3, with “software.” for “software. IC50 values on this seven cell lines of Anagrelide were detect by MTT method, and all of them are less than 100 nM (Table 2).”

H4 cells = test: Cell cycle arrest (summary of experiments); type: cell-based, human
Procedure: as §1

Bel7404 cells [4] = test: Cell cycle arrest (summary of experiments); type: cell-based, human
Procedure: as §1

A498 cells [5] = test: Cell cycle arrest (summary of experiments); type: cell-based, human
Procedure: as §1

FHCC98 cells = test: Cell cycle arrest (summary of experiments); type: cell-based, human
Procedure: as §1

## O=C1CN2Cc3c(ccc(Cl)c3Cl)N=C2N1 [Anagrelide, 6,7-dichloro-1,5-dihydro-imidazo [2,1-b] quinazolin-2 (3H)-one]
[1]; 10 mg/kg intragastric
  effect on animal body weight: no significant difference from the negative control group
[1]; 30 mg/kg intragastric
  effect on animal body weight: no significant difference from the negative control group
Phosphodiesterase (PDE)
  phosphodiesterase (PDE) activity: capable of inhibiting phosphodiesterase (PDE) activity
SMMC7721 cells
  effect on cell cycle (cycle arrest): a significant G1, G2 cycle arrest was produced; also recorded: the cycle arrest was very strong
SW1116 cells
  effect on cell cycle (cycle arrest): a relatively weaker effect of cycle arresting; also recorded: a significant cycle arrest phenomenon was produced
HeLa cells
  effect on cell cycle (cycle arrest): a significant G1, G2 cycle arrest was produced; also recorded: the cycle arrest was very strong
Bel7404 cells [2]
  inhibition of cell growth: significantly inhibited growth
A498 cells [3]; 1 μM, 72 hours, MTT, A498
  inhibition of cell growth: significantly inhibited growth
A498 cells [3]
  IC50: 53 nM
A498 cells [3]; Homo sapiens, A498, 72 h
  IC50: < 100 nM
Tumor cells
  growth inhibition of tumor cells: obviously inhibit the growth of tumor cells
MDA-MB-231 cells
  inhibition of cell growth: inhibited their growth
MDA-MB-468 cells
  inhibition of cell growth: inhibited their growth
U87-MG cells
  inhibition of cell growth: inhibited their growth
Wi38 cells
  inhibition of cell growth: inhibited their growth
H1299 cells
  inhibition of cell growth: inhibited their growth
DU145 cells
  inhibition of cell growth: inhibited their growth
H4 cells
  effect on cell cycle (cycle arrest): the cycle arrest was very strong
Bel7404 cells [4]
  effect on cell cycle (cycle arrest): a significant cycle arrest phenomenon was produced
A498 cells [5]
  effect on cell cycle (cycle arrest): a significant cycle arrest phenomenon was produced
FHCC98 cells
  effect on cell cycle (cycle arrest): the cycle arrest was very strong
